One compound from ChEMBL document CHEMBL4828722, “The synthesis and bioactivity of pyrrolo[2,3-d]pyrimidine derivatives as tyrosine kinase inhibitors for NSCLC cells with EGFR mutations” (Eur J Med Chem, 2021) can be followed below.

SMILES strings stand for the structures.

A short description of data set [1]: Potency index, ratio of avitinib IC50 to test compound IC50 for cytotoxicity against human BEAS-2B cells assessed as reduction in cell viability measured after 48 hrs by CCK8 assay. The class given is cell-based. Conditions: read-out: Ratio IC50. On the technique in general: Tetrazolium assays rely on reduction of a dye to a coloured formazan, in cell work by metabolically active cells.

Data set [2] in a line: Selectivity index, ratio of IC50 for cytotoxicity against human A549 cells harboring wild type EGFR to IC50 for cytotoxicity against human HCC827 cells harboring EGFR del E746-A750 mutant assessed as reduction in cell viability measured after 48 hrs by CCK8 assay.
Data set [3] can be described thus: Selectivity index, ratio of IC50 for cytotoxicity against human NCI-H460 cells harboring wild type EGFR to IC50 for cytotoxicity against human HCC827 cells harboring EGFR del E746-A750 mutant assessed as reduction in cell viability measured after 48 hrs by CCK8 assay.

With `C=CC(=O)Nc1cccc(Oc2nc(Nc3ccc(N4CCN(C)CC4)c(N)c3)nc3[nH]ccc23)c1`, in data set [1], the selectivity ratio at 48 h was determined as 2. Besides, the “Selectivity Index” value is 132 in data set [2] and 579.7 in data set [3].
